According to US20110142837A1, “Method Of Treating Acute Respiratory Distress Syndrome” (TRUSTEES OF THE UNIVERSITY OF PENNSYLVANIA, priority 2007, published 2011):

What was measured:
[1] = tested on: neutrophils from healthy individuals incubated with BAL fluid from ARDS patients; assay: mPT of supernatants from healthy neutrophils stimulated with ARDS BAL fluid, inhibition studies; type: cell-based, human
Protocol: Isolation of peripheral blood neutrophils: Circulating leukocytes from all ARDS patients and from 4 healthy donors were immediately isolated from EDTA-treated peripheral blood. Peripheral blood neutrophils were separated by Histopaque-double gradient density centrifugation. The absolute number of neutrophils was adjusted to 2-3×10^6 cells/ml in PBS. Approximately one-quarter (˜6-8×10^5 cells in 250 μl PBS) was used for each stimulation or inhibition reaction. Cell purity (>98%), viability by trypan blue exclusion (>97%), and platelet contamination (<2 platelets/100 neutrophils) were assessed in all experiments.
Modified prothrombin time (mPT) assay: The supernatants from neutrophils that had been incubated with BALF supernatants or/and various agents were isolated by centrifugation at 1000×g for 10 minutes; the supernatants from these neutrophil preparations were checked a second time to confirm the absence of contaminating cells or platelets. The coagulation activities (TF/FVIIa binding activity) of the cell supernatants were determined using a modified prothrombin time (mPT) assay as previously described (18). After performing the “classic” prothrombin time (PT) test (100 microliter (μl) platelet poor plasma (PPP) plus 200 μl thromboplastin ISI 1.9 (Instrumentation Laboratory, Milan, Italy), the modified PT analysis was carried out. Namely, 120 μl of cell or BALF supernatant and 80 μl thromboplastin were added to 100 μl of PPP to measure the changes in PT. As a control for modified PT assays, 120 μl of PBS was used instead of cell supernatant, and the in vitro clotting time usually ranged from 31 seconds to 34 seconds.
(§1) Stimulation and inhibition studies: Neutrophils from healthy individuals were incubated for 120 minutes at 37° C. in PBS containing various stimulatory or inhibitory substances, in a total volume of 250 μl. Neutrophils were incubated with: 1) serum (50 μl) from healthy individuals; 2) serum (50 μl) from patients suffering from ARDS; 3) BAL fluid (40 μl) from ARDS patients; 4) BAL fluid from ARDS patients, together with normal neutrophils that had been pretreated for 30 minutes with the C5aR antagonist AcF-[OpdChaWR] (5 μM final concentration); 5) BAL fluid from patients with ARDS, together with normal neutrophils that had been preincubated for 30 minutes with the C3aR antagonist […], 10 μM final concentration); 6) BAL fluid from ARDS patients pretreated for 30 minutes with Humira® (Abbot Laboratories, Abbott Park, Ill.; anti-TNF monoclonal antibody, 0.4 μg/μl final concentration), together with normal neutrophils; or 7) BAL fluid from ARDS patients, together with normal neutrophils pretreated for 30 minutes with anti-IL-6 Mab (10 μg/ml final concentration).
In the complement cascade, cleavage of C3 produces C3a and C3b. C3b contributes to the formation of enzymatic assemblies that in turn catalyze the formation of C5a from C5. The following experiment was designed to test whether inhibition of C3 cleavage, which reduces the amount of C5a formed, is effective in reducing TF expression. Modified PT assays were carried out essentially as described above using neutrophils obtained from healthy individuals and incubating them with BAL fluid from patients with ARDS. The BAL fluid from the seven patients was tested individually.

[2] = target: C5a receptor (C5aR) on neutrophils from healthy individuals (human) (UniProt P21730); assay: cell-based or functional assay
Chain of UniProt P21730 (P21730 whole entry): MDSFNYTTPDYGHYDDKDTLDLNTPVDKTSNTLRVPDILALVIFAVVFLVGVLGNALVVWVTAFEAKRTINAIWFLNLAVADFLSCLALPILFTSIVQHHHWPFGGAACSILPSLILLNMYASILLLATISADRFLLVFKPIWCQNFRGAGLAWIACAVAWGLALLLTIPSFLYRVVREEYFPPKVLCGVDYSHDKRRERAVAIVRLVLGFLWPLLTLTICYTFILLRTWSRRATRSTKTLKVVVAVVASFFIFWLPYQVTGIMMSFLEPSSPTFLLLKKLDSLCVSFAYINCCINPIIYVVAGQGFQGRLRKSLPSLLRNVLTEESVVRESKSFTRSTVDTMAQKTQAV

[3] = tested on: TF expression in neutrophils; assay: TF expression in BALF-stimulated healthy neutrophils (APAAP immunostaining, FACS, western blot); type: cell-based, human; conditions: FIGS. 4B, C and D; healthy neutrophils + 40 μl ARDS BALF
Protocol: as §1
Alkaline-Phosphatase anti-Alkaline-Phosphatase (APAAP) Immunostaining: Smears of cells (BALF pellet and peripheral blood-isolated neutrophils, before and after stimulation and/or inhibition studies) were stored at −20° C. prior to use. […]

[4] = target: TNF-alpha in BALF from ARDS patients (human) (UniProt P01375); assay: cell-based or functional assay
Chain of UniProt P01375 (P01375 77-233 limits assumed): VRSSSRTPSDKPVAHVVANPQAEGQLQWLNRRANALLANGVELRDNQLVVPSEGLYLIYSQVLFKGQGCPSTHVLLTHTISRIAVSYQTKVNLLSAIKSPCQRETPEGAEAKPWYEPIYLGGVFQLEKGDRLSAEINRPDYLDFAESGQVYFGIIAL

NC(N)=NCCC[C@H](NC(=O)COCC(c1ccccc1)c1ccccc1)C(=O)O [SB-290152]
influence on mPT values of supernatants from BALF-stimulated neutrophils ([1]; SB-290152 10 μM, anti-IL-6 Mab 10 μg/ml, 30 minutes pretreatment): did not influence the mPT values

CC[C@H](C)[C@H](N)C(=O)N[C@H]1CSSC[C@@H](C(=O)N[C@H](C(N)=O)[C@@H](C)O)NC(=O)[C@H](CCCN=C(N)N)NC(=O)[C@H](Cc2cnc[nH]2)NC(=O)[C@H](Cc2cnc[nH]2)NC(=O)CNC(=O)[C@H](Cc2c[nH]c3ccccc23)NC(=O)[C@H](CC(=O)O)NC(=O)[C@H](CCC(N)=O)NC(=O)[C@H](C(C)C)NC(=O)[C@H](C(C)C)NC1=O [compstatin, Ile-Cys-Val-Val-Gln-Asp-Trp-Gly-His-His-Arg-Cys-Thr]
mPT, healthy neutrophils + BALF incubated with compstatin, group b ([1]; 3 ARDS cases (group b), FIG. 6, column 5, P=ns compared to BALF alone 24.13±1.31): 24.57±0.55
mPT, healthy neutrophils + BALF preincubated with compstatin, group a ([1]; 4 ARDS cases (group a), FIG. 6, column 4, p<0.001 compared to BALF alone 24.13±1.31, PBS 32.11±0.58): 27.98±0.71
effect on procoagulant activity in mPT, Comp b ([1]; group of 3 ARDS patients, FIG. 6): did not significantly reduce the procoagulant activity
effect on procoagulant activity in mPT, Comp a ([1]; group of 4 ARDS patients, FIG. 6): reduced the procoagulant activity

AcF-[OPdChaWR] (acetyl-Phe-[Orn-Pro-D-cyclohexylalanine-Trp-Arg]; PMX-53) (peptide)
modified prothrombin time (mPT) of supernatants from BALF-stimulated healthy neutrophils pretreated with C5aR antagonist [2]: 31.9 s

Acetyl-Phe-[Orn-Pro-D-cyclohexylalanine-Trp-Arg] [PMX-53]
mPT of supernatants from BALF-stimulated healthy neutrophils after blockade of signaling ([1]; 40 μl ARDS BALF, 30 minutes pretreatment, C5aR antagonist 5 μM, Humira 0.4 μg/μl, BALF without inhibitor 24.13±1.31 sec, ARDS serum control 29.69±1.64 sec, p<0.001, FIG. 4A): 31.91 ± 0.64 s
TF expression in BALF-stimulated neutrophils after blockade (immunohistochemical, flow cytometry, western blot) [3]: loss of TF expression

Humira (Abbott Laboratories; anti-TNF monoclonal antibody)
modified prothrombin time (mPT) of supernatants from healthy neutrophils stimulated with BALF pretreated with anti-TNF antibody [4]: 30.4 s
